“And” between values parts separate entries of the source, which are not always exact repeats. Equal entries are not always repeated. Inconclusive results and toxic doses are left out.
Test system: P388 leukemia ip, CD2F1 mice, survival T/C
Assay: NCI In Vivo Anticancer Drug Screen. Data for tumor model P388 Leukemia (intraperitoneal) in CD2F1 (CDF1) mice
Conditions: endpoint: median survival time, higher = longer survival
Outline: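 Mice carrying the transplanted tumor received test compound or vehicle. Survival was recorded in each group, and the value is the treated-group measurement divided by that of the vehicle-treated control group.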

[1] = dose: 100.0 mg/kg/injection, schedule: Q04DX002 (ip), vehicle: saline with Tween-80
[2] = dose: 200.0 mg/kg/injection, schedule: Q04DX002 (ip), vehicle: saline with Tween-80
[3] = dose: 25.0 mg/kg/injection, schedule: Q01DX005 (ip), vehicle: saline with Tween-80
[4] = dose: 50.0 mg/kg/injection, schedule: Q01DX005 (ip), vehicle: saline with Tween-80
[5] = dose: 100.0 mg/kg/injection, schedule: Q01DX005 (ip), vehicle: saline with Tween-80
[6] = dose: 50.0 mg/kg/injection, schedule: Q01DX009 (ip), vehicle: Klucel (hydroxypropylcellulose) (HPC)
[7] = dose: 100.0 mg/kg/injection, schedule: Q01DX009 (ip), vehicle: Klucel (hydroxypropylcellulose) (HPC)
[8] = dose: 25.0 mg/kg/injection, schedule: Q01DX009 (ip), vehicle: saline
[9] = dose: 50.0 mg/kg/injection, schedule: Q01DX005 (ip), vehicle: Klucel (hydroxypropylcellulose) (HPC)
[10] = dose: 50.0 mg/kg/injection, schedule: Q01DX009 (ip), vehicle: saline
[11] = dose: 100.0 mg/kg/injection, schedule: Q01DX005 (ip), vehicle: Klucel (hydroxypropylcellulose) (HPC)
[12] = dose: 100.0 mg/kg/injection, schedule: Q01DX009 (ip), vehicle: saline
[13] = dose: 100.0 mg/kg/injection, schedule: Q04DX003 (ip), vehicle: saline with Tween-80
[14] = dose: 200.0 mg/kg/injection, schedule: Q04DX003 (ip), vehicle: saline with Tween-80
[15] = dose: 400.0 mg/kg/injection, schedule: Q04DX003 (ip), vehicle: saline with Tween-80
[16] = dose: 50.0 mg/kg/injection, schedule: Q01DX005 (ip), vehicle: saline

`CN(C)C(C#C[Si](C)(C)C)CO` (configuration not stated) was tested, and the T/C (dose: 100.0 mg/kg/injection, schedule: Q04DX003 (ip), vehicle: saline) was 104 % of control, the T/C (dose: 200.0 mg/kg/injection, schedule: Q04DX003 (ip), vehicle: saline) was 100 % of control and the T/C (dose: 400.0 mg/kg/injection, schedule: Q04DX003 (ip), vehicle: saline) was 97 % of control.

`CC1CC(C)S(=O)CS1` (configuration not stated) was tested, and the T/C [1] was 98 % of control and the T/C [2] was 100 % of control.

For `COC(=O)C1(c2cc3c(cc2OC)N(C)C2CCCCC32)CCCCCc2c1[nH]c1ccccc21` (configuration not stated), the T/C (dose: 12.5 mg/kg/injection, schedule: Q01DX001 (ip), vehicle: distilled water + Tween-80) was 106 % of control, the T/C (dose: 25.0 mg/kg/injection, schedule: Q01DX001 (ip), vehicle: distilled water + Tween-80) was 100 % of control and the T/C (dose: 50.0 mg/kg/injection, schedule: Q01DX001 (ip), vehicle: distilled water + Tween-80) was 104 % of control. For the same compound, the T/C (dose: 100.0 mg/kg/injection, schedule: Q01DX001 (ip), vehicle: distilled water + Tween-80) was 100 % of control and the T/C (dose: 200.0 mg/kg/injection, schedule: Q01DX001 (ip), vehicle: distilled water + Tween-80) was 97 % of control.

`CCOC(=O)N1C=CC(CC(=O)N(CC)CC)C=C1` (tested in a mixture with another compound) was tested, and the T/C (dose: 60.0 mg/kg/injection, schedule: Q01DX005 (ip), vehicle: saline) was 102 % of control, the T/C (dose: 120.0 mg/kg/injection, schedule: Q01DX005 (ip), vehicle: saline) was 96 % of control and the T/C (dose: 240.0 mg/kg/injection, schedule: Q01DX005 (ip), vehicle: saline) was 108 % of control.

In the case of `CC1=C(/C=C/C(C)=C/C=C/C(C)=C/C(=O)Nc2ccc(O)cc2)C(C)(C)CCC1`, the T/C [3] is reported as 97 % of control and the T/C [4] is reported as 90 % of control.

For `C/C(=N\NC(=S)N1CCCC1)c1nccs1`, the T/C (dose: 12.5 mg/kg/injection, schedule: Q01DX005 (ip), vehicle: saline with Tween-80) was 109 % of control, the T/C [3] was 104 % of control and the T/C [4] was 108 % of control and 114 % of control.

In the case of `CCOC(=O)c1cc2c(nc1C)-c1cc(Cl)ccc1OC2OCc1ccccc1` (configuration not stated), the T/C (dose: 60.0 mg/kg/injection, schedule: Q01DX005 (ip), vehicle: saline with Tween-80) is reported as 88 % of control, the T/C (dose: 120.0 mg/kg/injection, schedule: Q01DX005 (ip), vehicle: saline with Tween-80) is reported as 94 % of control and the T/C (dose: 240.0 mg/kg/injection, schedule: Q01DX005 (ip), vehicle: saline with Tween-80) is reported as 97 % of control.

`Cn1cccc1/C=N/N1CC(=O)N(c2ccccc2)CC1=O` was tested, and the T/C [4] was 108 % of control and the T/C [5] was 100 % of control.

In the case of `C=CCCC(=O)OC(C)(C)C`, the T/C (dose: 12.5 mg/kg/injection, schedule: Q01DX009 (ip), vehicle: Klucel (hydroxypropylcellulose) (HPC)) is reported as 102 % of control, the T/C (dose: 25.0 mg/kg/injection, schedule: Q01DX009 (ip), vehicle: Klucel (hydroxypropylcellulose) (HPC)) is reported as 101 % of control and the T/C [6] is reported as 104 % of control. For the same compound, the T/C [7] was 101 % of control and the T/C (dose: 200.0 mg/kg/injection, schedule: Q01DX009 (ip), vehicle: Klucel (hydroxypropylcellulose) (HPC)) was 103 % of control.

For `CCOC(=O)Nc1cc2c(c(N)n1)N=C(c1ccccc1)C(C)N2` (configuration not stated), the T/C (dose: 0.5 mg/kg/injection, schedule: Q01DX005 (ip), vehicle: saline) was 123 % of control, the T/C (dose: 0.75 mg/kg/injection, schedule: Q01DX005 (ip), vehicle: saline) was 121 % of control and the T/C (dose: 1.0 mg/kg/injection, schedule: Q01DX005 (ip), vehicle: saline) was 171 % of control.

In the case of `CC1=NCCc2cc3c(cc21)OCO3`, the T/C (dose: 25.0 mg/kg/injection, schedule: Q01DX001 (ip), vehicle: saline + alcohol) is reported as 99 % of control and the T/C (dose: 50.0 mg/kg/injection, schedule: Q01DX001 (ip), vehicle: saline + alcohol) is reported as 97 % of control.

For `COc1ccc(NC(CCN2CCN(CCC(=NC(C)(C)C)Nc3ccc(OC)cc3)CC2)=NC(C)(C)C)cc1`, the T/C (dose: 25.0 mg/kg/injection, schedule: Q01DX009 (ip), vehicle: saline with Tween-80) was 97 % of control, the T/C [8] was 110 % of control and the T/C [9] was 98 % of control. For the same compound, the T/C [6] was 110 % of control, the T/C (dose: 50.0 mg/kg/injection, schedule: Q01DX009 (ip), vehicle: saline with Tween-80) was 97 % of control and the T/C [10] was 109 % of control. For the same compound, the T/C [11] was 103 % of control, the T/C [7] was 110 % of control and the T/C (dose: 100.0 mg/kg/injection, schedule: Q01DX009 (ip), vehicle: saline with Tween-80) was 107 % of control. For the same compound, the T/C [12] was 97 % of control and the T/C (dose: 200.0 mg/kg/injection, schedule: Q01DX009 (ip), vehicle: saline with Tween-80) was 116 % of control.

`NC(=O)NC1CCCCCC1` was tested, and the T/C [13] was 100 % of control, the T/C [14] was 100 % of control and the T/C [15] was 109 % of control.

In the case of `Clc1ccc(N2C(c3ccccc3)=N[C@@H](N3CCCCC3)[C@@H]2N2CCCCC2)cc1`, the T/C [9] is reported as 102 % of control, the T/C [11] is reported as 98 % of control and the T/C (dose: 200.0 mg/kg/injection, schedule: Q01DX005 (ip), vehicle: Klucel (hydroxypropylcellulose) (HPC)) is reported as 93 % of control.

For `CCOC(=O)C(C(=O)OCC)C1(O)C2CCCC21` (configuration not stated), the T/C [1] was 101 % of control, the T/C [2] was 101 % of control and the T/C (dose: 400.0 mg/kg/injection, schedule: Q04DX002 (ip), vehicle: saline with Tween-80) was 104 % of control.

With `CCOP(=O)(O)OCC.CCOP(=O)(O)OCC.[O]=[V]` the T/C (dose: 100.0 mg/kg/injection, schedule: Q01DX001 (ip), vehicle: Klucel (hydroxypropylcellulose) (HPC)) was 100 % of control and the T/C (dose: 200.0 mg/kg/injection, schedule: Q01DX001 (ip), vehicle: Klucel (hydroxypropylcellulose) (HPC)) was 100 % of control.

With `S=P1(c2ccccc2)C=C(N2CCCC2)CC1` (configuration not stated) the T/C (dose: 12.5 mg/kg/injection, schedule: Q01DX009 (ip), vehicle: saline) was 109 % of control, the T/C [8] was 110 % of control and the T/C [10] was 112 % of control. For the same compound, the T/C [12] was 104 % of control and the T/C (dose: 200.0 mg/kg/injection, schedule: Q01DX009 (ip), vehicle: saline) was 96 % of control.

`Cc1ccc(C(O)(c2ccc(C)cc2)C2(O)CCCCC2)cc1` was tested, and the T/C [4] was 109 % of control, the T/C [5] was 100 % of control and the T/C (dose: 200.0 mg/kg/injection, schedule: Q01DX005 (ip), vehicle: saline with Tween-80) was 101 % of control.

With `CCCCN(CCCC)c1ccc(C(=N)c2ccc(N(C)C)cc2)cc1` the T/C (dose: 6.25 mg/kg/injection, schedule: Q01DX005 (ip), vehicle: Klucel (hydroxypropylcellulose) (HPC)) was 106 % of control and the T/C (dose: 12.5 mg/kg/injection, schedule: Q01DX005 (ip), vehicle: Klucel (hydroxypropylcellulose) (HPC)) was 106 % of control.

With `C[n+]1ccccc1-c1ccc[n+](CCCCC[n+]2cccc(-c3cccc[n+]3C)c2)c1` the T/C [16] was 100 % of control and 104 % of control, the T/C (dose: 100.0 mg/kg/injection, schedule: Q01DX005 (ip), vehicle: saline) was 99 % of control and 104 % of control and the T/C (dose: 200.0 mg/kg/injection, schedule: Q01DX005 (ip), vehicle: saline) was 107 % of control.

In the case of `CC(C)CC(C)NC(C)CC(C)C` (configuration not stated), the T/C (dose: 12.5 mg/kg/injection, schedule: Q01DX005 (ip), vehicle: saline) is reported as 90 % of control, the T/C (dose: 25.0 mg/kg/injection, schedule: Q01DX005 (ip), vehicle: saline) is reported as 97 % of control and the T/C [16] is reported as 102 % of control and 92 % of control.

In the case of `O=C(COc1ccc(Cl)cc1Cl)Nc1ccccc1F`, the T/C [13] is reported as 100 % of control, the T/C [14] is reported as 100 % of control and the T/C [15] is reported as 100 % of control.

With `CC(=O)Oc1ccc(OC(C)=O)c2c(OC(C)=O)c(C3CCC(C)(C)O3)cc(OC(C)=O)c12` (configuration not stated) the T/C (dose: 12.5 mg/kg/injection, schedule: Q04DX002 (ip), vehicle: saline with Tween-80) was 106 % of control and the T/C (dose: 25.0 mg/kg/injection, schedule: Q04DX002 (ip), vehicle: saline with Tween-80) was 118 % of control.

In the case of `CC(=O)O[C@H]1[C@@H](OC(C)=O)[C@]2(C)[C@H](CC[C@@]3(C)[C@H](c4ccoc4)C[C@H]4O[C@@]423)[C@@]2(C)C=CC(=O)OC(C)(C)[C@H]12`, the T/C (dose: 1.25 mg/kg/injection, schedule: Q04DX003 (ip), vehicle: Klucel (hydroxypropylcellulose) (HPC)) is reported as 94 % of control, the T/C (dose: 2.5 mg/kg/injection, schedule: Q04DX003 (ip), vehicle: Klucel (hydroxypropylcellulose) (HPC)) is reported as 88 % of control and the T/C (dose: 5.0 mg/kg/injection, schedule: Q04DX003 (ip), vehicle: Klucel (hydroxypropylcellulose) (HPC)) is reported as 93 % of control. For the same compound, the T/C (dose: 10.0 mg/kg/injection, schedule: Q04DX003 (ip), vehicle: Klucel (hydroxypropylcellulose) (HPC)) was 88 % of control.

For `CCN(CC)CCC(=O)/C=C/c1ccccc1`, the T/C [8] was 111 % of control and the T/C [10] was 116 % of control and 118 % of control.
